Results taken from US20050239873A1 (priority 1999, published 2005).

Columns and labels:
RPMI-8226 myeloma cells = experiment: [3H]-thymidine incorporation assay; assay type: cell-based, human
Protocol: (§1) RPMI 8226 cells were grown in 96 well plates for 24 h prior to addition of 2-methoxy Antimycins. Antimycin stocks in DMSO were serially diluted in RPMI media. Cells were incubated for 48 h with compounds at final compound concentrations ranging from 10^−4 to 10^−8 M. MTT assays were performed in quadruplicate and percent growth inhibitions were calculated as (A570 (control cells)—A570 (treated cells))/A570 (control cells). The GI50 was extrapolated from semi-log plots of the dose response for each compound. […] After 72 h drug exposures, 1 μCi/ml [^3H]-thymidine was added to wells. Cells were incubated for an additional 24 h, and then transferred to GF/C filter plates (Packard) using a plate washer. Filters were dried, added to scintillant, and counted in a TopCount scintillation counter (Packard). Drug response was expressed as the percentage of vehicle-treated controls, and each value shown as the average of three determinations.

NCI-H929 myeloma cells = experiment: [3H]-thymidine incorporation assay; assay type: cell-based, human; conditions: 72 h drug exposure
Protocol: as §1

U266 myeloma cells = experiment: [3H]-thymidine incorporation assay; assay type: cell-based, human; conditions: 72 h drug exposure
Protocol: as §1

[1] = tested on: TAMH hepatocyte cell line; experiment: O2 consumption with a Clark electrode; assay type: cell-based, murine
Protocol: Respiratory rates of both cell lines were maintained through repeated additions of 10 μM 2-OMeA, to a final concentration of 90 μM. […] Real-time glucose consumption and lactate production by TAMH cells grown on microcarrier beads was monitored using a novel microsequential injection-lab on valve (μSI-LOV) system (Schulz et al., Analyst 127:1293-1298, 2002). […] Since 2-OMeA has no effect on cellular respiration at these concentrations, 2-OMeA induced aerobic glycolysis in TAMH cells. The glycolytic response to 2-OMeA was proportional to cellular BCl-xL protein expression.

plasma proteins [2] = experiment: Binding to plasma proteins (ultrafiltration); assay type: in vitro ADME, human; conditions: presence of NaF+EDTA, 1000 ng/ml
Protocol: (§2) Solutions of 2-OMe antimycin A3 were diluted with plasma (dog or human) containing NaF+EDTA to final concentrations of 1.0 or 0.2 μg/ml. Controls were diluted with water to the same final concentrations. These preparations were incubated at 37° C. for 20 min, at which time portions were taken and placed in the sample reservoirs of Amicon Centrifree® ultrafiltration systems (Millipore Co., Bedford, Mass.). At 37° C., the filter systems were centrifuged until the reservoirs were dry. From each filtrate, portions were taken for analysis by HPLC. The amounts present were designated as “free drug” (F). The concentrations of the unfiltered solutions were also determined by triplicate analyses. This amount represented the “total drug” concentration (T). The percentage of 2-OMe antimycin A3 bound to plasma proteins was calculated by the following formula: % bound=((T−F)/T)×100

Stability in plasma [3] = assay type: in vitro ADME, mouse; conditions: for stability: 37° C., 60 min
Protocol: (§3) For analysis of samples, two volumes of cold methanol-acetonitrile (50:50, v/v) were added to portions of plasma, culture medium, or cell extract. The preparations were mixed and then centrifuged to obtain clear supernatants, which were dried at room temperature by compressed air. The residues were dissolved in the mobile phase, and a portion was injected onto the HPLC column.
(§4) The HPLC equipment consisted of a Hewlett Packard 1050 ChemStation with a fluorescence detector (Agilent 100 series). […] The mobile phase was methanol:ammonium acetate buffer (87:13 v/v; 0.2 M; pH 5.8, adjusted with HCl). The flow rate was 1 ml/min. The column elute was monitored fluorometrically at an excitation wavelength of 232 nm and an emission wavelength of 418 nm. The amounts of test compounds present in samples were determined from the peak areas.
(§5) Samples of mouse, rat, dog, and human plasma were incubated at 37° C. with and without addition of NaF (2.5 mg/ml) and EDTA (1 mg/ml). To these preparations, 2-OMe antimycin A1, 2-OMe antimcyin A2, 2-OMe antimycin A3, or 2-OMe antimycin A5, dissolved in methanol, was added to final concentrations of 500 ng/ml. Portions of plasma, taken at selected times after addition of the 2-OMe antimycin analog, were extracted and analyzed.
(§6) Similarly, the stability of 2-OMe antimycin A1, 2-OMe antimycin A2, […] in the plasma from mice and humans was evaluated at −80° C. From these preparations, portions were analyzed immediately; other portions were stored at -80° C. and analyzed after 1, 2, and 4 weeks.

Stability in plasma [4] = assay type: in vitro ADME, human; conditions: for stability: 37° C., 60 min
Protocol: as §3, §4, §5, §6

plasma proteins [5] = experiment: Binding to plasma proteins (ultrafiltration); assay type: in vitro ADME, dog; conditions: presence of NaF+EDTA, 1000 ng/ml
Protocol: as §2
Similar experiments were performed for 2-OMe antimycin A3 in dog or rat plasma in the absence of NaF/EDTA.

[6] = tested on: control mitochondria (TABX1A cells); experiment: Rhodamine 123 retention assay; set-up: species or system murine
Protocol: Rh-123 is a cationic lipid-soluble fluorescent dye that accumulates in mitochondria in proportion to the mitochondrial membrane potential. Mitochondria were isolated from TABX2S cells (over-expressing Bcl-xL) and from control cells, prepared as described in Example 2. The isolated mitochondria were loaded with Rh-123 by incubating with 10 μM Rh-123 for 30 minutes, washed and resuspended in buffer. […] Less than 40% of Rh-123 was retained in antimycin A-treated TABX2S mitochondria, compared with greater than 80% retained in control mitochondria.
In contrast, the control cells, which express BCl-xL at physiological levels, were resistant to BH3 peptide-induced membrane depolarization.

Row | Compound | IC50 (RPMI-8226 myeloma cells; 72 h drug exposure) | IC50 relative to antimycin A (RPMI-8226 myeloma cells; RPMI-8226, U266 and NCI-H929) | IC50 (NCI-H929 myeloma cells) | IC50 (U266 myeloma cells) | respiratory rate ([1]; repeated additions of 10 μM to a final concentration of 90 μM) | Protein binding, Human (plasma proteins [2]) | stability (Stability in plasma [3]; presence of NaF/EDTA) | amounts remaining after 4 weeks (Stability in plasma [3]; -80° C., presence of NaF/EDTA) | amounts remaining after 4 weeks (Stability in plasma [3]; −80° C., absence of NaF/EDTA) | stability (Stability in plasma [4]; presence of NaF/EDTA) | amounts remaining after 4 weeks (Stability in plasma [4]; -80° C., presence of NaF/EDTA) | amounts remaining after 4 weeks (Stability in plasma [4]; −80° C., absence of NaF/EDTA) | Protein binding, Dog (plasma proteins [5]) | Rh123 dye leakage ([6]; BH3 peptide 3.5 μM) | Rh-123 retained ([6]; five minutes after adding) | 50% growth inhibition (GI50) (RPMI-8226 myeloma cells; 72 h drug exposure) | 50% growth inhibition (GI50) (NCI-H929 myeloma cells) | 50% growth inhibition (GI50) (U266 myeloma cells) | dampening of respiration ([1]; 10 μM)
1 | 2-methoxy antimycin A [2-OMeA] | 15 µg/mL | 100 fold | 10 µg/mL | 5 µg/mL | maintained | – | – | – | – | – | – | – | – | – | – | – | – | – | –
2 | CCCCCC[C@H]1C(=O)O[C@H](C)[C@H](NC(=O)c2cccc(NC=O)c2OC)C(=O)O[C@@H](C)[C@@H]1OC(=O)CC(C)C [2-OMeA1, 2-methoxy antimycin A1] | – | – | – | – | – | 99.5% | substantially stable | 96% | 78% | moderately stable | 93% | 86% | 99.8% | – | – | – | – | – | –
3 | antimycin A | – | – | – | – | – | – | – | – | – | – | – | – | – | minimally affected | greater than 80% | 0.1 µg/mL | 0.2 µg/mL | 0.05 µg/mL | > 90%
4 | CCCC[C@H]1C(=O)OC(C)[C@H](NC(=O)c2cccc(NC=O)c2OC)C(=O)O[C@@H](C)C1OC(=O)CC(C)C (stereo partly drawn) [2-OMeA3, Antimycin A3 methyl ether] | – | – | – | – | – | 99.9% | notable decreases in concentration | 90% | 45% | notable decreases in concentration | 95% | 73% | 99.3% | – | – | – | – | – | –
